Where “and” joins values, the source holds several entries; their conditions need not be identical. Equal values may be shown once.
Experiments:
[1] = test system: Polygonatum cirrhifolium Royle seeds; test: Induction of germination (hypocotyl emergence) on modified MS medium with GA3 at diurnal 30/20° C. in dark; assay type: in vivo; details: modified MS culture medium, 20/30° C. in dark
Method: Ripe purplish berries from plants grown in the wild were collected and dehydrated for 15 days at room temperature (29° C.±2° C.). Seeds were collected from dehydrated berries and washed in tap water with 1-2 drops of Tween-20™ for 2 hours and rinsed three times in distilled water. Seeds were then surface sterilized with 0.1% mercuric chloride (HgCl2) for 3 minutes. Mercuric chloride was removed by washing seeds four times in sterile distilled water. Sterilized, rinsed seeds were placed on semi-solid culture medium in sterile disposable plastic Petri plates (10 cm×2 cm). Macro and micro nutrients in the basal medium were that of Murashige and Skoog's (Murashige, T. and Skoog, F. […]. Physiol Plant 15: 433 -497) but modified to contain 2.2 g/L NH4NO3, 2.0 g/L KNO3, 0.44 g/l CaCl2.2H2O, 0.37 g/L MgSO4.7H20, 0.17 g/L KH2PO4, 37.25 mg/L Na2 EDTA, 27.8 mg/L FeSO4.7H20, 0.83 mg/L KI, 6.2 mg/L H3BO3, 22.3 mg/L MnSO4.4H20, 8.6 mg/L ZnSO4.7H20, 0.25 mg/L Na2 MoO4.2H20, 0.025 mg/L CuSO4.5H2O, 0.025 mg/L CoCl2.6H20. This medium was supplemented with 250 mg/L myo-inosital, 0.5 mgl/l nicotinic acid, 0.5 mg/L pyridoxine HCl, 3 mg/L thiamine HCl, 2 mg/L glycine, 30 g/L sucrose, 7.5 g/L agar and 2, 10, 25, and 50 mg/L gibberellic acid. The pH of the medium was adjusted to 5.8 before adding agar. Medium was sterilized at 121° C. (15 lb. psi pressure) for 20 minutes. […] Seeds with emerged hypocotyl were transferred under aseptic conditions to the above defined basal culture medium containing gibberellic acid at 5, 25, 50 and 100 mg/L. Transferred plants were incubated in an environment having 8-16-hr days under about 2000 lux of light and about 8-16-hr nights in total darkness at a constant temperature of 20° C. ([…]) and at 50-60% RH. Illumination was provided by 40-watt cool, white fluorescent tubes. Germination synchronization as indicated by differentiated epicotyl with emergent coleoptile and radicle was recorded on daily basis. Tables 1 and 2 show the induction of germination as indicated by the emergence of hypocotyl at temperature of 30° C. (±2° C.; dark; RH 50-60%) and diurnal temperature of 30/20° C. (±2° C.; dark; RH 50-60%). In this experiment also there were 4 treatments with varying levels of GA3 2-50 mg/L. Supplemented to the modified MS basal culture medium containing of 2.2 g/L NH4NO3, 2.0 g/L KNO3, 0.44 g/l CaCl2.2H2O, 0.37 g/L MgSO4.7H20, 0.17 g/L KH2PO4, 37.25 mg/L Na2 EDTA, 27.8 mg/L FeSO4.7H20, 0.83 mg/L KI, 6.2 mg/L H3BO3, 22.3 mg/L MnSO4.4H20, 8.6 mg/L ZnSO4.7H20, 0.25 mg/L Na2 MoO4.2H20, 0.025 mg/L CuSO4.5H2O, 0.025 mg/L CoCl2.6H20, […], 0.5 mg/L nicotinic acid, 0.5 mg/L pyridoxine HCl, 3 mg/L thiamine HCl, 2 mg/L glycine, 30 g/L sucrose and 7.5 g/L agar. Cultures were incubated under diurnal temperature regime of 30/20° C. (dark). Each treatment consisted of 15 replicates with 5 seeds in each. Germination is induced in all the treatments (table 2). Maximum germination of 62.12% is obtained at 50 mg/L Of GA3.

[2] = test system: Polygonatum cirrhifolium Royle secondary explants; test: De novo axillary bud differentiation and release of foliage leaves on MS medium with GA3, BAP and NAA; assay type: in vivo; details: for Percentage axillary buds producing leaves / Percentage secondary-explants producing axillary buds / Mean number of axillary buds per secondary explant: MS medium, after 16 weeks of culture; for Mean number of axillary buds per secondary explant: ± SE
Excerpt: Cultures were maintained at 50-60% RH. Plants were subcultured every four weeks in both sets of experiments on the same media formulations. Observations were made periodically but final data was compiled after 16 weeks of culture. In still another embodiment of the present invention, results in table 4 and 5 show the influence of various concentrations and combinations of BAP, NAA and GA3 on the in vitro release of epicotyl dormancy indicated by the release of rosette of leaves and induction of de novo axillary bud differentiation and their sprouting at 20-24° C. under 10-16 hr photoperiod (2000-3500 lux) at 50-60% of RH. […] Each treatment consisted of 24 cultures. These were incubated at 20° C. under 16 hr photoperiod (2000 lux) at 60% RH. […] There is a concomitant increase in the elicitation of response with the increasing concentrations of GA3.

[3] = GA3 1. mg/L in combination and 1.0 mg/L of NAA
[4] = GA3 5. mg/L in combination and 1.0 mg/L of NAA
[5] = GA3 10. mg/L in combination and 1.0 mg/L of NAA
[6] = GA3 15. mg/L in combination and 1.0 mg/L of NAA
[7] = GA3 20. mg/L in combination and 1.0 mg/L of NAA

**Q.** Which results are given for `C=C1C[C@]23C[C@@]1(O)CC[C@H]2[C@@]12C=C[C@H](O)[C@@](C)(C(=O)O1)[C@H]2[C@@H]3C(=O)O` [GA3, gibberellic acid]?
**A.** Duration of germination ([1]; GA3 2 mg/L): 32-73; Percent germination ([1]; GA3 2 mg/L): 12.41 ± 6.17%; Duration of germination ([1]; GA3 10 mg/L): 34-72; Percent germination ([1]; GA3 10 mg/L): 18.06 ± 4.32%; Duration of germination ([1]; GA3 25 mg/L): 27-63; Percent germination ([1]; GA3 25 mg/L): 46.00 ± 5.11%; Duration of germination ([1]; GA3 50 mg/L): 23-58; Percent germination ([1]; GA3 50 mg/L): 62.12% and 62.12 ± 3.66%; Percentage axillary buds producing leaves [2, 3]: 37.03%; Percentage secondary-explants producing axillary buds [2, 3]: 16.67%; Mean number of axillary buds per secondary explant [2, 3]: 2.70 ± 0.70; Remarks ([2]; GA3 1. mg/L in combination and 1.0 mg/L of NAA, remark wraps over r12-r14: Epicotylar bulge swells forms rhizomatous base): Epicotylar bulge; Percentage axillary buds producing leaves [2, 4]: 46.58— %; Percentage secondary-explants producing axillary buds [2, 4]: 70.83%; Mean number of axillary buds per secondary explant [2, 4]: 6.44 ± 1.04; Percentage axillary buds producing leaves [2, 5]: 66.22%; Percentage secondary-explants producing axillary buds [2, 5]: 87.50%; Mean number of axillary buds per secondary explant [2, 5]: 9.06 ± 2.00; Percentage axillary buds producing leaves [2, 6]: 77.12%; Percentage secondary-explants producing axillary buds [2, 6]: 100.00%; Mean number of axillary buds per secondary explant [2, 6]: 11.67 ± 1.96; Percentage axillary buds producing leaves [2, 7]: 97.03%; Percentage secondary-explants producing axillary buds [2, 7]: 100.00%; Mean number of axillary buds per secondary explant [2, 7]: 8.96 ± 2.01; Remarks ([2]; GA3 20. mg/L in combination and 1.0 mg/L of NAA, remark wraps over r18-r20: Rhizomatous base, callus induction): Rhizomatous

Reference: patent US20030100109A1, “Methods and compositions for in vitro germination and propagation of polygonatum cirrhifolium royle” (priority 2001, published 2003)
